Measured values as given in publication PMC2607020, “An Unusual Helix Turn Helix Motif in the Catalytic Core of HIV-1 Integrase Binds Viral DNA and LEDGF” (PLoS ONE, 2009).
Entries after “also recorded” stand apart in the source; their conditions may differ. Where two headings read alike, the source gives them in different places.

How the values were obtained:
IN = details: ref [30]; cited from earlier work
Description: In a previous study, based on the intrinsic fluorescence properties of IN conferred by its six Trp residues, we have shown the ability of peptide INH5 (Table 1a) to interact with IN with a concentration midpoint (C0.5) of 168 nM [30]. […] There are examples in the literature showing that the so-called stabilizing helix of HTH motifs is involved in the protein dimerization. This is the case of topoisomerase II, in which the binding site to DNA is fashioned from the interaction of two HTH motifs. The implication of the α5 helix in the enzyme structure and activity has been highlighted in our previous report showing that peptide INH ...

wt IN [1] = details: intrinsic fluorescence of IN; similar conditions; ref [30]; cited from earlier work
Description: In a previous study, based on the intrinsic fluorescence properties of IN conferred by its six Trp residues, we have shown the ability of peptide INH5 (Table 1a) to interact with IN with a concentration midpoint (C0.5) of 168 nM [30].

[2] = Circular dichroism of free peptide (secondary structure, oligomerisation); assay type: physicochemical
Excerpt: They were made according to the Fmoc procedure, as already reported for peptide α4, for its “stabilized” analogue i.e., peptide K156, and for the peptide INH5, derived from the α5 helix, [43]. Peptide α4 reproduces the α4 helix sequence of IN; peptide K156 is a variant of the α4 peptide resulting from the replacement of weakly helicogenic residues by more helicogenic ones in several biologically irrelevant positions; peptide INH5 contains both the α5 helix and the turn connecting the α5 helix to the α4 helix. The peptides HTHi and wt HTHi reproduce the sequences of the HTHi motifs in the IN-Phe185Lys variant and in wt IN respectively. A version of the HTHi peptide with a carboxyfluorescein at the N-terminus has also been prepared. Tyr or Trp aromatic residues, when absent in the native sequences, were purposely added in order to enable peptide quantification by UV absorption spectra. Peptide concentrations were determined using a molar absorption coefficient at 280 nm equal to 1 280 M^−1 cm^−1 for the tyrosine-containing peptides α4, INH5 and HTHi and 5600 M^−1 cm^−1 for the tryptophane-containing peptides K156 and […].
CD spectra were recorded on a Jobin-Yvon CD6 dichrograph (HORIBA Jobin-Yvon, France). Peptide concentrations varied from 5 to 25 µM in the “assay buffer”, containing 40 mM sodium phosphate, 0.5 mM EDTA, pH 6.0. The samples, incubated 10 min at the chosen temperature to allow the solutions to reach their equilibrium state, were placed in thermally jacketed cells with a 1 mm path length. The spectra, recorded in 1 nm steps, were averaged over ten scans and corrected for the base line, then presented as differential molar absorptivities per residue, Δε (M^−1 cm^−1), for peptides, and as difference spectra (complex minus DNA), for peptide-DNA complexes. For the HTHi-LTR interaction, aliquots of peptide were added to LTR34 (10 µM) and the control spectrum of unliganded LTR was subtracted from that of the complex. Recall that in a simple random coil – α helix equilibrium, the α-helix content of peptides could be approximated by the relation: Pα = −[Δε222×10] (Pα: percentage of α helix; Δε222: differential molar absorptivity per residue at 222 nm).

LEDGF-IBD (wt IBD) = molecular target: T1, LEDGF-IBD (wt IBD) (Homo sapiens, UniProt O75475); test: Fluorescence anisotropy titration of fluorescein-grafted HTHi by wt LEDGF-IBD; assay type: binding; details: fluorescein-grafted HTHi 50 nM titrated by wt LEDGF-IBD; pH 6.0; 5°C
T1 construct: The wt IBD is the fragment 347–471 of LEDGF (GST removed); GST (cleaved yes)
T1 sequence (O75475 347-471): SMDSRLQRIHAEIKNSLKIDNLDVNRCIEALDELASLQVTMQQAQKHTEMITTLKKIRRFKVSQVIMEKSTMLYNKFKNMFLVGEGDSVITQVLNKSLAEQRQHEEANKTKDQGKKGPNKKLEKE
Excerpt: (§1) Like the whole protein, these contain no Trp.

[3] = tested on: Asp366Asn-IBD variant of LEDGF; details: fluorescence anisotropy; fluorescein-labeled HTHi 50 nM; pH 6.0; 5°C
Description: The wt IBD is the fragment 347–471 of LEDGF (GST removed) [33], [51], [52]. The mutant IBD is the Asp366Asn version of the former. Like the whole protein, these contain no Trp. […] The proteins were used in the “reaction buffer” containing 20 mM HEPES (pH 6.8), 10 mM MgCl2 and 10 mM DTT.
Intrinsic fluorescence quantum yield and fluorescence anisotropy studies were carried out with a Jobin-Yvon Fluoromax II instrument (HORIBA Jobin-Yvon, France) equipped with an ozone-free 150 W xenon lamp. The samples (800 µl) were placed at 5°C in thermally jacketed 1 cm×0.5 cm quartz cells. At least ten measurements for each titration point were recorded with an integration time of 5 sec.
The fluorescence anisotropy of the fluorescein-conjugated version of HTHi (50 nM) titrated by wt and mutated IBD in the “assay buffer” was used to evaluate the Kd of the LEDGF-HTHi complex.

wt IN [4] = test: Quenching of the intrinsic fluorescence of wt IN by peptide; assay type: binding, HIV-1; details: wt IN 100 nM monomer; Trp fluorescence quenching, excitation 295 nm; 20 mM HEPES pH 6.8, 10 mM MgCl2, 10 mM DTT; 5°C
Description: as §1
The intrinsic fluorescence of wt IN was measured at 100 nM monomer concentration, in the “reaction buffer” (see above). The Trp residues were excited at 295 nm and emission was recorded between 305 and 450 nm, with 2 nm and 5 nm excitation and emission slit widths, respectively. A maximal emission was obtained at 337 nm. Quenching of the fluorescence of IN following the addition of HTHi or of peptide α4 (devoid of Trp) was expressed as 1-F/F0, where F0 is the fluorescence of the enzyme in the absence of peptide.

viral DNA = test: Specific binding of peptide to viral DNA (general statement); set-up: species or system HIV-1; details: Discussion
[5] = molecular target: CRE (cAMP response element); details: negative control sequence CRE; ref [43]; read-out: Kd (non-specific binding); cited from earlier work
Excerpt: The behavior of peptide HTHi is similar to that of peptide K156.

LTR34f5′ [6] = details: LTR34f5′ vs LTR34fm; ref [43]; cited from earlier work
Excerpt: (§2) In a previous work we pointed out the importance of the conformational entropy in the binding of the α4 helix to the viral DNA. In order to reduce this effect, we had designed an analog of the α4 peptide that had its secondary structure stabilized by helicogenic mutations (Gly149Ala, Ile161Leu, Ile162Leu and Gly163Ala). The resulting peptide, K156, was a good mimic of the α4 helix in the protein context and was better organized for binding than peptide α4.

LTR34fm [7] = details: ref [43], cited from earlier work
Excerpt: as §2

[8] = molecular target: CRE (cAMP response element); test: Fluorescence anisotropy titration of CRE (negative control sequence) by peptide; details: CRE 20 nM, curve fitting, ±10% uncertainty, 40 mM sodium phosphate, 0.5 mM EDTA, pH 6.0, 5°C, read-out: Kd (non-specific binding)
Excerpt: (§3) The oligonucleotides (Table 1b) were purchased from Cybergene ESGS (France) and Eurogentec (Belgium). The choice of monomolecular hairpin-forming oligonucleotides, rather than bimolecular duplex-forming ones, was motivated by the need for stability under the low concentrations inherent to the fluorescence anisotropy experiments. The fluorescein reporter group is grafted either to the central T nucleotide (LTR34fm) or to the 5′ extremity (LTR34f5′ and CRE). The CRE (cAMP responsive element) sequence was used as negative control. The version of LTR34 without fluorescein was used in CD studies.
(§4) Fluorescence anisotropy titration, [75]. Fluorescein-labeled oligonucleotides were used at 20 nM in the “assay buffer” (see Table 1b and above). With fluorescein as fluorophore, excitation and emission were at 488 nm and 516 nm, with 4 nm and 5 nm slits, respectively. Peptides were added to DNA as successive aliquots. For each anisotropy measurement, the parallel [drawing 1] and the perpendicular [drawing 2] intensities of the background solution (i.e., buffer and protein contributions) were subtracted from those of the sample.

LTR34 = test: Circular dichroism of peptide-DNA complex (difference spectrum); assay type: binding, HIV-1; details: HTHi 6 µM + LTR34 10 µM, 40 mM sodium phosphate, 0.5 mM EDTA, pH 6.0
Excerpt: as §3
CD spectra were recorded on a Jobin-Yvon CD6 dichrograph (HORIBA Jobin-Yvon, France). Peptide concentrations varied from 5 to 25 µM in the “assay buffer”, containing 40 mM sodium phosphate, 0.5 mM EDTA, pH 6.0. The samples, incubated 10 min at the chosen temperature to allow the solutions to reach their equilibrium state, were placed in thermally jacketed cells with a 1 mm path length. The spectra, recorded in 1 nm steps, were averaged over ten scans and corrected for the base line, then presented as differential molar absorptivities per residue, Δε (M^−1 cm^−1), for peptides, and as difference spectra (complex minus DNA), for peptide-DNA complexes. […]

LTR34f5′ [9] = test: Fluorescence anisotropy titration of LTR34f5′ by peptide; assay type: binding, HIV-1
Excerpt: as §3, §4

LTR34fm [10] = test: Fluorescence anisotropy titration of LTR34fm by peptide; assay type: binding, HIV-1; details: LTR34fm 20 nM, curve fitting, ±10% uncertainty, 40 mM sodium phosphate, 0.5 mM EDTA, pH 6.0, 5°C
Excerpt: as §3, §4

## DQ 168 AEHLKTAVQMAVFIHNY 185KA [INH5, peptide containing both the α5 helix and the turn connecting the α5 helix to the α4 helix]
IN
  effect on IN: caused the dissociation of the tetramers and dimers of IN; also recorded: inhibits IN by dissociating the IN dimers and tetramers
Wt IN [1]
  concentration midpoint (C0.5): 168 nM

## SQG149VIESMNK156ELKKIIGQVRDQ 168 AEHLKTAVQMAVWIHNF185K [wt HTHi]
[2]; experiments not shown, method not stated
  structure compared with that of the mutant bi-helix: the structure of the wt bi-helix was similar to that of the mutant

## CC[C@H](C)[C@H](NC(=O)[C@H](Cc1ccccc1)NC(=O)[C@@H](NC(=O)[C@H](C)NC(=O)[C@H](CCSC)NC(=O)[C@H](CCC(N)=O)NC(=O)[C@@H](NC(=O)[C@H](C)NC(=O)[C@@H](NC(=O)[C@H](CCCCN)NC(=O)[C@H](CC(C)C)NC(=O)[C@H](Cc1c[nH]cn1)NC(=O)[C@H](CCC(=O)O)NC(=O)[C@H](C)NC(=O)[C@H](CCC(N)=O)NC(=O)[C@H](CC(=O)O)NC(=O)[C@H](CCCNC(=N)N)NC(=O)[C@@H](NC(=O)[C@H](CCC(N)=O)NC(=O)CNC(=O)[C@@H](NC(=O)[C@@H](NC(=O)[C@H](CCCCN)NC(=O)[C@H](CCCCN)NC(=O)[C@H](CC(C)C)NC(=O)[C@H](CCC(=O)O)NC(=O)[C@H](CCCCN)NC(=O)[C@H](CC(N)=O)NC(=O)[C@H](CCSC)NC(=O)[C@H](CO)NC(=O)[C@H](CCC(=O)O)NC(=O)[C@@H](NC(=O)[C@@H](NC(=O)CNC(=O)[C@H](Cc1ccc(O)cc1)NC(=O)c1ccc2c(c1)C(=O)OC21c2ccc(O)cc2Oc2cc(O)ccc21)C(C)C)[C@@H](C)CC)[C@@H](C)CC)[C@@H](C)CC)C(C)C)[C@@H](C)O)C(C)C)C(C)C)C(=O)N[C@@H](Cc1c[nH]cn1)C(=O)N[C@@H](CC(N)=O)C(=O)N[C@@H](CCCCN)C(=O)N[C@@H](CCCCN)C(=O)N[C@@H](C)C(=O)O [fluorescein-grafted HTHi peptide]
LEDGF-IBD (wt IBD)
  Hill number: 11±3
[3]
  binding to Asp366Asn-IBD vs wt IBD: only the wt IBD binds HTHi

## SQG149VVESMNK156ELKKIIGQVRY [α4]
Wt IN [4]
  midpoint of titration curve (C0.5): 53 ± 5 nM
[2]; stated in Discussion
  conformation of isolated peptide: mostly displays random conformation
Viral DNA; isolated peptide, no value
  DNA binding (in words): very poor DNA binder; also recorded: completely unable to specifically bind the viral DNA

## SQA 149 KLEEMNK156ELKKLLAQVRAQ168 W
[5]
  Kd: 16000 nM
LTR34f5′ [6]
  effect of fluorescein at the 5′ extremity on binding modes: suppressed the high affinity binding mode of K156 but preserved the low affinity mode
LTR34fm [7]; attachment site on the six outermost bases of viral DNA, read-out: Kd1 (high affinity site)
  Kd: 2.1 nM
LTR34fm [7]; non-specific binding, read-out: Kd2 (low affinity site)
  Kd: 54000 nM
Viral DNA; K156 vs HTHi
  affinity for viral DNA compared with HTHi: manifests a greater affinity for viral DNA than peptide HTHi

## YG149VIESMNK156ELKKIIGQVRDQ 168 AEHLKTAVQMAVFIHNK 185KA [HTHi]
Wt IN [4]
  midpoint of titration curve (C0.5): 104 ± 8 nM
[2]; CD, spectra of α4 from ref [43] and of INH5 from ref [30]
  helix content compared with component peptides α4 and INH5: helix content of HTHi is greater than that of peptides α4 [43] and INH5 [30]
[2]; high peptide concentration, CD, pH 6.0
  propensity to form oligomers in solution: propensity of HTHi to form oligomers in solution at high concentration
[2]; peptide 6 µM, 40 mM sodium phosphate, 0.5 mM EDTA, pH 6.0, 1 mm path length
  helical content: 10–15%
[2]; peptide 25 µM, 40 mM sodium phosphate, 0.5 mM EDTA, pH 6.0
  helical content (in words): weak amount of helix
[8]
  Kd: 6600 nM
LTR34
  change of helical content on binding LTR34: practically doubles its helical content when binding to LTR34
LTR34f5′ [9]; LTR34f5′ 20 nM, monophasic, fluorescence anisotropy, curve fitting, ±10% uncertainty, 40 mM sodium phosphate, 0.5 mM EDTA, pH 6.0, 5°C
  Kd: 2900 nM
LTR34f5′ [9]; LTR34f5′ vs LTR34fm
  effect of fluorescein at the 5′ extremity on high affinity binding: The high affinity is abolished
LTR34fm [10]; read-out: Kd1 (high affinity site)
  Kd: 50 nM
LTR34fm [10]; read-out: Kd2 (low affinity, non-specific site)
  Kd: 1900 nM
